Test results: ChEMBL document CHEMBL6153138, “Discovery of Novel Aromatic Urea-Imidazole Salt Derivatives for Cancer Therapy via Targeting ERK1/2” (J Med Chem, 2025)
Active and inactive are the calls of the source. The calls are words filed in the database; no cut-off is given here.

Tests used:
MCF7 [1] = test: Induction of autophagy in human MCF7 cells assessed as increase in acidic vesicular organelles at 0.5 to 2 uM by Acridine orange staining based analysis; format: functional, cell-based; conditions: dose 0.5-2 µM
MCF7 [2] = test: Inhibition of cell migration in human MCF7 cells at 0.5 to 2 uM incubated for 48 hrs by wound healing assay; format: functional, cell-based; conditions: dose 0.5-2 µM
4T1 [3] = test: Antitumor activity against mouse 4T1 cells implanted in female BALB/c mouse model assessed as increase in ERK1/2 phosphorylation at 50 mg/kg, po qd measured from 12 to 24 hrs by immunohistochemical analysis; format: functional, organism-based; conditions: time 12-24 hrs
[4] = Toxicity in female BALB/c mouse assessed as effect GLU level in serum at 25 to 50 mg/kg, po qd measured after 18 days by biochemical analysis; format: organism-based; conditions: in vivo, 432 h, dose 25-50 mg/kg, time 18 day
4T1 [5] = test: Antitumor activity against mouse 4T1 cells implanted in female BALB/c mouse model assessed as increase in ERK1/2 phosphorylation at 50 mg/kg, po qd measured from 30 mins to 8 hrs by immunohistochemical analysis; format: functional, organism-based; conditions: time 30-480 min
[6] = Toxicity in female BALB/c mouse assessed as effect on spleen at 50 mg/kg, po qd measured after 18 days in presence of chloroquine by H and E staining based analysis; format: organism-based; conditions: in vivo, 432 h, time 18 day
MCF7 [7] = test: Upregulation of C-caspase3 protein expression in human MCF-7 cells at 1 uM incubated for 6 hrs in presence of 3-methyladenine by Western blot analysis; format: functional, cell-based
MCF7 [8] = test: Induction of apoptosis in human MCF7 cells assessed as increase in caspase-3 cleavage at 0.5 to 2 uM by Western blot analysis; format: functional, cell-based; conditions: dose 0.5-2 µM
[9] = molecular target: T1, Ribosomal protein S6 kinase alpha-1 (Homo sapiens, UniProt Q15418); test: Inhibition of human RSK1 at 10000 nM by DiscoverX KINOMEscan assay relative to control
Mitochondrial membrane = test: Induction of mitochondrial membrane potential loss in human MCF7 cells assessed as reduction in JC-1 aggregates by measuring decrease in red fluorescence at 2 uM by flow cytometry analysis (reference value: 24.7%); format: cell membranes; set-up: scale not given: the % may be the effect or the level left
[10] = molecular target: T1, Ribosomal protein S6 kinase alpha-1; test: Inhibition of RSK1 (unknown origin) incubated for 60 mins by luminescence based ADP-Glo kinase assay
MCF7 [11] = test: Activation of ERK1/2 pathway in human MCF7 cells assessed as increase in EGF-induced p90RSK phosphorylation at 2 uM incubated for 30 mins by Western blot analysis; format: cell-based
A-375 = test: Antiproliferative activity against human A-375 cells expressing B-Raf V600E mutant; format: functional, cell-based
MCF7 [12] = test: Antiproliferative activity against human MCF7 cells harbouring ERK2 knockout incubated for 48 hrs by CCK-8 method; format: functional, cell-based
[13] = molecular target: Macrophage colony-stimulating factor 1 receptor (Homo sapiens) (UniProt P07333); test: Inhibition of human FMS at 10000 nM by DiscoverX KINOMEscan assay relative to control
MDA-MB-468 = test: Antiproliferative activity against human MDA-MB-468 cells incubated for 48 hrs by CCK-8 method; format: functional, cell-based; conditions: MDA-MB-468, 48 h
4T1-Luc [14] = test: Anti-metastatic activity in mouse 4T1-Luc cells assessed as reduction in number of tumor metastatic nodules at 25 to 50 mg/kg, po measured after 20 days; format: functional, organism-based; conditions: dose 25-50 mg/kg, time 20.0 day
MCF7 [15] = test: Induction of apoptosis in human MCF7 cells assessed as late apoptotic cells at 1 uM incubated for 48 hrs by Annexin V/FITC and PI staining based flow cytometry analysis (reference value: 2.5%); format: functional
[16] = Apparent volume of distribution in Sprague-Dawley rat at 1 mg/kg, iv by LC-MS/MS analysis; format: ADME, organism-based; conditions: in vivo, read-out: Vz
[17] = Toxicity in female BALB/c mouse assessed as effect on tumor at 25 to 50 mg/kg, po qd measured after 18 days by H and E staining based analysis; format: organism-based; conditions: in vivo, 432 h, dose 25-50 mg/kg, time 18 day
MCF7 [18] = test: Downregulation of c-Myc phosphorylation expression in human MCF7 cells at 0.5 to 2 uM measured after 30 mins to 4 hrs by Western blot analysis; format: functional, cell-based; conditions: dose 0.5-2 µM, time 30-240 min
4T1 [19] = test: Antitumor activity against mouse 4T1 cells implanted in female BALB/c mouse model assessed as tumor growth inhibition at 50 mg/kg, po qd measured for 18 days relative to control; format: functional; conditions: 4T1, 432 h, time 18 day, read-out: TGI
4T1-Luc [20] = test: Anti-metastatic activity in mouse 4T1-Luc cells assessed as reduction in enlarged alveolar space at 25 to 50 mg/kg, po measured after 20 days by H and E staining based analysis; format: functional, organism-based; conditions: dose 25-50 mg/kg, time 20.0 day
MCF7 [21] = test: Induction of apoptosis in human MCF7 cells assessed as increase in Bax/Bcl-2 ratio at 0.5 to 2 uM by Western blot analysis; format: functional, cell-based; conditions: dose 0.5-2 µM
[22] = molecular target: T2, Mitogen-activated protein kinase 1 (Homo sapiens, UniProt P28482); test: Binding affinity to ERK2 (unknown origin) assessed as dissociation constant by MST analysis
4T1-Luc [23] = test: Anti-metastatic activity in mouse 4T1-Luc cells assessed as reduction in condensed nuclei at 25 to 50 mg/kg, po measured after 20 days by H and E staining based analysis; format: functional, organism-based; conditions: dose 25-50 mg/kg, time 20.0 day
[24] = molecular target: Mitogen-activated protein kinase 3 (Homo sapiens, UniProt P27361); test: Inhibition of ERK1 (unknown origin) incubated for 60 mins by luminescence based ADP-Glo kinase assay
4T1 [25] = test: Antitumor activity against mouse 4T1 cells implanted in female BALB/c mouse model assessed as tumor growth inhibition at 50 mg/kg, po qd measured for 18 days in presence of chloroquine relative to control; format: functional; conditions: 4T1, 432 h, time 18 day, read-out: TGI
MCF7 [26] = test: Induction of autophagy in human MCF7 cells harbouring ATG5 knockout assessed as increase in LC3B expression at 1 uM incubated for 48 hrs by Western blot analysis; format: functional, cell-based
MCF7 [27] = test: Upregulation of ERK1/2 phosphorylation expression in human MCF7 cells at 2 uM measured after 12 to 24 hrs by Western blot analysis; format: functional, cell-based; conditions: time 12-24 hrs
[28] = Toxicity in female BALB/c mouse assessed as effect TP level in serum at 25 to 50 mg/kg, po qd measured after 18 days by biochemical analysis; format: organism-based; conditions: in vivo, 432 h, dose 25-50 mg/kg, time 18 day
[29] = Toxicity in female BALB/c mouse assessed as effect CHO level in serum at 25 to 50 mg/kg, po qd measured after 18 days by biochemical analysis; format: organism-based; conditions: in vivo, 432 h, dose 25-50 mg/kg, time 18 day
4T1 [30] = test: Antitumor activity against mouse 4T1 cells implanted in female BALB/c mouse model assessed as increase in LC3B expression at 50 mg/kg, po in presence of chloroquine by immunohistochemical analysis; format: functional, organism-based
MCF7 [31] = test: Induction of apoptosis in human MCF7 cells assessed as early apoptotic cells at 1 uM incubated for 48 hrs in presence of 3-methyladenine by Annexin V/FITC and PI staining based flow cytometry analysis (reference value: 8.14%); format: functional
[32] = molecular target: T2, Mitogen-activated protein kinase 1; test: Induction of thermal stabilization of ERK2 (unknown origin) at 10 uM by differential scanning fluorimetry analysis
[33] = Toxicity in female BALB/c mouse assessed as effect on lung at 50 mg/kg, po qd measured after 18 days in presence of chloroquine by H and E staining based analysis; format: organism-based; conditions: in vivo, 432 h, time 18 day

T2 sequence (P28482 whole entry): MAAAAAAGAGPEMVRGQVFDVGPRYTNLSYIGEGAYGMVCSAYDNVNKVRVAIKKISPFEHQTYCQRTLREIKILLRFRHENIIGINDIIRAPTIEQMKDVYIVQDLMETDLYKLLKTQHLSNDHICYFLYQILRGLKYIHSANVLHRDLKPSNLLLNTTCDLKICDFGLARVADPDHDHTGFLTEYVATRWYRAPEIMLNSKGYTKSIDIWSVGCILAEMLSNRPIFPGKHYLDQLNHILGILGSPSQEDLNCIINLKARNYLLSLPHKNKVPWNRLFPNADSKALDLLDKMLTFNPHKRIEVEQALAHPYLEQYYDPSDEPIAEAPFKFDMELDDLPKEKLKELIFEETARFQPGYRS
T1 sequence (Q15418 whole entry): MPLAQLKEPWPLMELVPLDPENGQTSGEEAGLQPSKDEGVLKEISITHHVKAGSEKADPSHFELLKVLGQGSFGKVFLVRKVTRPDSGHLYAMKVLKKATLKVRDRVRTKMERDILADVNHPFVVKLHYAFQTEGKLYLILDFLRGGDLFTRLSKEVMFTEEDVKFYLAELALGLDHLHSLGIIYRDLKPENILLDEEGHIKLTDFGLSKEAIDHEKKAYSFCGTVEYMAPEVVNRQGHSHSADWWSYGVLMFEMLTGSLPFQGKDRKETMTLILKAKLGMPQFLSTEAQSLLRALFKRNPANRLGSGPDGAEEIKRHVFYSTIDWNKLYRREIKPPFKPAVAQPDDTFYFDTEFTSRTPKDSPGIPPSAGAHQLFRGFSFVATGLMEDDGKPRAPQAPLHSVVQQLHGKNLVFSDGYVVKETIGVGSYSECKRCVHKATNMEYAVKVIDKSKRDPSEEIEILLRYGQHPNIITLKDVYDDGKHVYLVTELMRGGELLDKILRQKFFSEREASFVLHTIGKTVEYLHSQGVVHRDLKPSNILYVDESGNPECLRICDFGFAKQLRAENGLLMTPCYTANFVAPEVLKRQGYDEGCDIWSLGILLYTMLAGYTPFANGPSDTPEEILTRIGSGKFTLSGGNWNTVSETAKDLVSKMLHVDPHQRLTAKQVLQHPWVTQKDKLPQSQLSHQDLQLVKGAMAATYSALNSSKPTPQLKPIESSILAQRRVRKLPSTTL
Chain of Macrophage colony-stimulating factor 1 receptor (Homo sapiens) (P07333 whole entry): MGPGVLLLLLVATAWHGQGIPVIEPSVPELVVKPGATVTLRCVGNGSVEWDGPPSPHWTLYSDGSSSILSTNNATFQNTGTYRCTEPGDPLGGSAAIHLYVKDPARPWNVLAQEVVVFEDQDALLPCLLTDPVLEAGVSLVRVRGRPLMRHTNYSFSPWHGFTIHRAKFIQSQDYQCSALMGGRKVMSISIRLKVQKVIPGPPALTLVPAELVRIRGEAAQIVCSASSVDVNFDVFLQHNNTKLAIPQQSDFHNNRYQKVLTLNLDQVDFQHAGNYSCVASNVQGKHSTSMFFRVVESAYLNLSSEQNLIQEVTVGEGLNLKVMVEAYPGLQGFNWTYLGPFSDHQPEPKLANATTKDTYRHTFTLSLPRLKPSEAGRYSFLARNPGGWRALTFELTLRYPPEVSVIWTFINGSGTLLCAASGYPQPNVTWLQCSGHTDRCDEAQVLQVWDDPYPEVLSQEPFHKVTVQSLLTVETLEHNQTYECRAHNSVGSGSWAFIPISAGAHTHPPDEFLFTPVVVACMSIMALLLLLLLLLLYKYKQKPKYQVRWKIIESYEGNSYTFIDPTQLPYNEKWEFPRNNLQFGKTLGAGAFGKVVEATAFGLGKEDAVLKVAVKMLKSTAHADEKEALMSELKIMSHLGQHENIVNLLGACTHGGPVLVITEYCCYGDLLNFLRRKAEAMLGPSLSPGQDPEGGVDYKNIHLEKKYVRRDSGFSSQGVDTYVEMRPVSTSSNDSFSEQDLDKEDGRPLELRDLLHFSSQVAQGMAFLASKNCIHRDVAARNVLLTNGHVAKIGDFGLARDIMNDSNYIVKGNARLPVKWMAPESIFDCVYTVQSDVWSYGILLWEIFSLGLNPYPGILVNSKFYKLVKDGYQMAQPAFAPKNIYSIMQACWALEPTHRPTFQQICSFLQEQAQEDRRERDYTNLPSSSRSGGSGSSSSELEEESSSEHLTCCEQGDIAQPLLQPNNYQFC
Chain of Mitogen-activated protein kinase 3 (P27361 whole entry): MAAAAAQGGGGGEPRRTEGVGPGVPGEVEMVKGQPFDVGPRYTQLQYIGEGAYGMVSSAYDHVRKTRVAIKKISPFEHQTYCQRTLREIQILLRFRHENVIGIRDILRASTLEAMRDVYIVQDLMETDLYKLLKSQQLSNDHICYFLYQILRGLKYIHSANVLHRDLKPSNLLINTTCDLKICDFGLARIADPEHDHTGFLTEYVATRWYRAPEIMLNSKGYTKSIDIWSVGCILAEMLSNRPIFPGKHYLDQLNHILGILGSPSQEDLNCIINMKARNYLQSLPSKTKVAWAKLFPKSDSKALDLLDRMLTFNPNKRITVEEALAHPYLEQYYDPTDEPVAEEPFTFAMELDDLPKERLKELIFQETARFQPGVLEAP

What does the source list for O=C(Nc1cc(C(F)(F)F)cc(C(F)(F)F)c1)N[C@@H](Cc1ccccc1)Cn1c[n+](Cc2ccc3ccccc3c2)c2ccccc21.[Br-]?
Activity (MCF7 [1]): Active; inhibition (MCF7 [2]): Active; Activity (4T1 [3]): inactive; Activity [4]: Non-toxic; Activity (4T1 [5]): Active; Activity [6]: Non-toxic; Activity (MCF7 [7]): Active; Activity (MCF7 [8]): Active; inhibition [9]: 8%; Activity (Mitochondrial membrane): 5.4%; IC50 [10]: 0.674 µM; Activity (MCF7 [11]): inactive; IC50 (A-375): 0.75 µM; Activity (MCF7 [12]): Not active; Compound Showed Less Sensitivity Response; inhibition [13]: 19%; IC50 (MDA-MB-468): 2.15 µM; Activity (4T1-Luc [14]): Active; Activity (MCF7 [15]): 9.6%; Vd [16]: 4.41 L/kg; Activity [17]: Non-toxic; Activity (MCF7 [18]): Active; inhibition in vivo at 50 mg/kg (4T1 [19]): 54.9%; Activity (4T1-Luc [20]): Active; Activity (MCF7 [21]): Active; Kd [22]: 0.116 µM; Activity (4T1-Luc [23]): Active; IC50 [24]: 0.0917 µM; inhibition in vivo at 50 mg/kg (4T1 [25]): 88.1%; Activity (MCF7 [26]): inactive; Activity (MCF7 [27]): inactive; Activity [28]: Non-toxic; Activity [29]: Non-toxic; Activity (4T1 [30]): Active; Activity (MCF7 [31]): 3.81%; Activity [32]: Active; Activity [33]: Non-toxic
